Reference: ChEMBL document CHEMBL3046923, “Heteroaromatic analogues of 1,5-diarylpyrazole class as anti-inflammatory agents” (2012)
The source made the active and inactive calls. The rule behind the calls is not given here.

Tests used:
Assay type in all cases: functional
Rattus norvegicus [1] = assay: Anti-inflammatory activity in Rattus norvegicus Wistar albino (rat) assessed as inhibition of carrageenan-induced paw edema at 50 mg/kg, po administered for 30 min prior to carrageenan challenge measured at 2 hr relative to control
Rattus norvegicus [2] = assay: Anti-inflammatory activity in Rattus norvegicus Wistar albino (rat) assessed as inhibition of carrageenan-induced paw edema at 50 mg/kg, po administered for 30 min prior to carrageenan challenge measured at 1 hr relative to control
Rattus norvegicus [3] = assay: Anti-inflammatory activity in Rattus norvegicus Wistar albino (rat) assessed as inhibition of carrageenan-induced paw edema at 50 mg/kg, po administered for 30 min prior to carrageenan challenge measured at 4 hr relative to control
Rattus norvegicus [4] = assay: Anti-inflammatory activity in Rattus norvegicus Wistar albino (rat) assessed as inhibition of carrageenan-induced paw edema at 50 mg/kg, po administered for 30 min prior to carrageenan challenge measured at 3 hr relative to control
Rattus norvegicus [5] = assay: Anti-inflammatory activity in Rattus norvegicus Wistar albino (rat) assessed as inhibition of carrageenan-induced paw edema at 10 mg/kg, ip administered for 30 min prior to carrageenan challenge measured at 3 hr relative to control; conditions: route intraperitoneal
Rattus norvegicus [6] = assay: Anti-inflammatory activity in Rattus norvegicus Wistar albino (rat) assessed as inhibition of carrageenan-induced paw edema at 10 mg/kg, ip administered for 30 min prior to carrageenan challenge measured at 1 hr relative to control; conditions: route intraperitoneal
Rattus norvegicus [7] = assay: Anti-inflammatory activity in Rattus norvegicus Wistar albino (rat) assessed as inhibition of carrageenan-induced paw edema at 10 mg/kg, ip administered for 30 min prior to carrageenan challenge measured at 2 hr relative to control; conditions: route intraperitoneal
Rattus norvegicus [8] = assay: Anti-inflammatory activity in Rattus norvegicus Wistar albino (rat) assessed as inhibition of carrageenan-induced paw edema at 10 mg/kg, ip administered for 30 min prior to carrageenan challenge measured at 4 hr relative to control; conditions: route intraperitoneal

SMILES | inhibition in vivo at 50 mg/kg (Rattus norvegicus [1]) [%] | inhibition in vivo at 50 mg/kg (Rattus norvegicus [2]) [%] | inhibition in vivo at 50 mg/kg (Rattus norvegicus [3]) [%] | inhibition in vivo at 50 mg/kg (Rattus norvegicus [4]) [%] | further results
Cc1ccc(-c2cc(C(F)(F)F)n(-c3nc4ccc(S(N)(=O)=O)cc4s3)n2)cc1 |  |  |  |  | inhibition (Rattus norvegicus [1]): inactive; inhibition (Rattus norvegicus [2]): inactive; inhibition (Rattus norvegicus [3]): inactive; inhibition (Rattus norvegicus [4]): inactive
NS(=O)(=O)c1ccc2nc(-n3nc(C(F)(F)F)cc3-c3ccc(Br)cc3)sc2c1 | 56 | 45 | 43 | 60 | 
NS(=O)(=O)c1ccc2nc(-n3nc(C(F)(F)F)cc3-c3ccccc3)sc2c1 | 48 | 32 | 17 | 54 | 
NS(=O)(=O)c1ccc2nc(-n3nc(C(F)(F)F)cc3-c3ccc(F)cc3)sc2c1 | 48 | 54 | 50 | 64 | 
NS(=O)(=O)c1ccc2nc(-n3nc(C(F)(F)F)cc3-c3ccco3)sc2c1 | 46 | 27 | 54 | 61 | 
COc1ccc2c(c1)c(CC(=O)O)c(C)n2C(=O)c1ccc(Cl)cc1 [INDOMETHACIN] |  |  |  |  | inhibition in vivo at 10 mg/kg (Rattus norvegicus [5]): 78%; inhibition in vivo at 10 mg/kg (Rattus norvegicus [6]): 70%; inhibition in vivo at 10 mg/kg (Rattus norvegicus [7]): 78%; inhibition in vivo at 10 mg/kg (Rattus norvegicus [8]): 75%
NS(=O)(=O)c1ccc2nc(-n3nc(C(F)(F)F)cc3-c3cccs3)sc2c1 | 26 | 5 | 15 | 49 | 
NS(=O)(=O)c1ccc2nc(-n3nc(C(F)(F)F)cc3-c3ccc4ccccc4c3)sc2c1 | 27 | 30 | 20 | 53 | 
COc1ccc(-c2cc(C(F)(F)F)nn2-c2nc3ccc(S(N)(=O)=O)cc3s2)cc1 | 31 | 42 | 53 | 60 | 
Cc1ccc(-c2cc(C(F)(F)F)nn2-c2nc3ccc(S(N)(=O)=O)cc3s2)cc1 | 38 | 35 | 52 | 56 | 
NS(=O)(=O)c1ccc2nc(-n3nc(C(F)(F)F)cc3-c3ccc(Cl)cc3)sc2c1 | 42 | 44 | 42 | 61 | 
